Laboratory results: US20210207064A1, “COMPOUND FOR RESTORING CONTAMINATED SOIL OR CONTAMINATED WATER” (FNG RESEARCH CO., LTD., priority 2018, published 2021)

How the values were obtained:
[1] = Heavy metal removal ability test in contaminated soil around a factory (WAK-Me test kit); details: 1.0 wt % aqueous solution, colour comparison test kit
Procedure: The contaminated soil around the factory in the industrial complex was collected, pulverized, and meshed to prepare fine particles of soil samples.
Each 3 ml of aqueous solutions for restoring soil was added to soil samples and mixed for 5 minutes.

[2] = Heavy metal removal ability test in contaminated soil (ICP-MS), nickel; details: for Nickel (Ni) Adsorption amount: contaminated soil; for Nickel (Ni) Adsorption rate: relative to EDTA control
Procedure: (§1) (1) Preparation of Soil Contaminated with Heavy Metal
(§2) After collecting and pulverizing uncontaminated soil, fine particles obtained by using a mesh were mixed with the aqueous heavy metal solution to prepare soil samples contaminated with heavy metals.
(§3) Each 3 ml of the prepared aqueous solution was added to a soil sample contaminated with heavy metals and mixed for 5 minutes.
(§4) 50 ml of distilled water was added to the contaminated soil mixed with the aqueous solution for restoring soil, stirred for 20 minutes, and settled for 1 hour, and a supernatant was prepared as a sample solution.
(§5) The prepared sample solution was analyzed for the heavy metal component using an Inductively Coupled Plasma Mass Spectrometer (ICP-MS) (Xseries™ 2, Thermo Fisher Scientific, UK).
(§6) Adsorption rate of heavy metals (%)=(Adsorption amount of Embodiment/Adsorption amount of Control)×100 Equation 1

[3] = Heavy metal removal ability test in contaminated soil (ICP-MS), cadmium; details: for Cadmium (Cd) Adsorption amount: contaminated soil; for Cadmium (Cd) Adsorption rate: relative to EDTA control
Procedure: as §1, §2, §3, §4, §5, §6

human skin = assay: Skin irritation test of active ingredient (patch method, CTFA guidelines); type: in vivo; details: 24 h patch; for Test result (number of subject) (+) / Test result (number of subject) (++) / Test result (number of subject) (±) / Test result (number of subject) (−): 20 people; for Test result (number of subject) (+): (+) apparent reddening; for Test result (number of subject) (++): (++) more reddened and swollen; for Test result (number of subject) (±): (±) slightly reddish; for Test result (number of subject) (−): (−) no erythema
Procedure: A filter paper disk was placed in an 8 mm diameter, 10 panels of pin chamber.
After 24 hours, the pin chamber was removed, and skin conditions were visually observed. The degree and grade for skin irritation were calculated according to the following Equation 2, and the results are shown in Table 4 below.
[Criteria for Skin Irritation]
(−): No erythema or particularly no symptoms; (±): slightly reddish than the periphery; (+): Apparent reddening than periphery; (++): More reddened and swollen than periphery.
[Grade for Skin Irritation]
Degree of irritation 0-0.1: Grade I (unstimulated);
Degree of irritation 0.11-0.3: Grade II (weakly stimulated);
Degree of irritation 0.31-0.5: Grade III (moderately stimulated);
Degree of irritation 0.51 or more: Grade IV (strongly stimulated)

[4] = Heavy metal removal ability test in contaminated soil (ICP-MS), arsenic; details: for Arsenic (As) Adsorption amount: contaminated soil; for Arsenic (As) Adsorption rate: relative to EDTA control
Procedure: as §1, §2, §3, §4, §5, §6

[5] = Formaldehyde (formalin) removing ability test (GC); details: 2.0% formaldehyde solution, 3 molar equivalents of compound, room temperature; for Formaldehyde GC Area, 30 min: after 30 min; for Formaldehyde GC Area, 180 min: after 180 min; for Formaldehyde GC Area, Initial: initial state

SMILES	Total amount (Cu, Zn, Mn, Ni, Cd) [1] [ppm]	Nickel (Ni) Adsorption amount ([2]; content 0.5% aqueous solution) [ppm]	Nickel (Ni) Adsorption rate ([2]; content 0.5%) [%]	Nickel (Ni) Adsorption amount ([2]; content 1.0% aqueous solution) [ppm]	Nickel (Ni) Adsorption rate ([2]; content 1.0%) [%]	Nickel (Ni) Adsorption amount ([2]; content 2.0% aqueous solution) [ppm]	Nickel (Ni) Adsorption rate ([2]; content 2.0%) [%]	Cadmium (Cd) Adsorption amount ([3]; content 0.5% aqueous solution) [ppm]	Cadmium (Cd) Adsorption rate ([3]; content 0.5%) [%]	Cadmium (Cd) Adsorption amount ([3]; content 1.0% aqueous solution) [ppm]	Cadmium (Cd) Adsorption rate ([3]; content 1.0%) [%]	Cadmium (Cd) Adsorption amount ([3]; content 2.0% aqueous solution) [ppm]	Cadmium (Cd) Adsorption rate ([3]; content 2.0%) [%]	Test result (number of subject) (+) (human skin; content 0.1 wt %)	Test result (number of subject) (++) (human skin; content 0.1 wt %)	Test result (number of subject) (±) (human skin; content 0.1 wt %)	Test result (number of subject) (−) (human skin; content 0.1 wt %)	Degree of irritation (human skin; content 0.1 wt %)	Grade for skin irritation (human skin; content 0.1 wt %)	Test result (number of subject) (+) (human skin; content 0.5 wt %)	also measured
O=C(O)c1ccc(N(CCN(CCN(c2ccc(C(=O)O)cc2)c2ccc(C(=O)O)cc2)c2ccc(C(=O)O)cc2)CCN(c2ccc(C(=O)O)cc2)c2ccc(C(=O)O)cc2)cc1 [Embodiment 2, 4,4′,4″,4′″-(((ethane-1,2-diylbis((4-carboxyphenyl)azanediyl))bis(ethane-2,1-diyl))bis(azanetriyl))tetrabenzoic Acid]	≤5	94	192	96	196	103	210	75	183	86	210	88	215	0	0	0	20	0	I (Degree of irritation 0-0.1: Grade I (unstimulated))	0	Test result (number of subject) (++) (human skin; content 0.5 wt %): 0; Test result (number of subject) (±) (human skin; content 0.5 wt %): 0; Test result (number of subject) (−) (human skin; content 0.5 wt %): 20; Degree of irritation (human skin; content 0.5 wt %): 0; Grade for skin irritation (human skin; content 0.5 wt %): I (Degree of irritation 0-0.1: Grade I (unstimulated)); Test result (number of subject) (+) (human skin; content 1.0 wt %): 0; Test result (number of subject) (++) (human skin; content 1.0 wt %): 0; Test result (number of subject) (±) (human skin; content 1.0 wt %): 1; Test result (number of subject) (−) (human skin; content 1.0 wt %): 19; Degree of irritation (human skin; content 1.0 wt %): 0.05; Grade for skin irritation (human skin; content 1.0 wt %): I (Degree of irritation 0-0.1: Grade I (unstimulated)); Arsenic (As) Adsorption amount ([4]; content 0.5% aqueous solution): 48 ppm; Arsenic (As) Adsorption rate ([4]; content 0.5%): 192%; Arsenic (As) Adsorption amount ([4]; content 1.0% aqueous solution): 49 ppm; Arsenic (As) Adsorption rate ([4]; content 1.0%): 196%; Arsenic (As) Adsorption amount ([4]; content 2.0% aqueous solution): 53 ppm; Arsenic (As) Adsorption rate ([4]; content 2.0%): 212%; Formaldehyde GC Area, 30 min [5]: 0.168 mAU*min; Formaldehyde GC Area, 180 min [5]: 0 mAU*min; Formaldehyde GC Area, Initial [5]: 0.305 mAU*min
O=C(O)CN1CCCN(CC(=O)O)CCN(CC(=O)O)CCCN(CC(=O)O)CC1 [Embodiment 9, 2,2′,2″,2′″-(1,4,8,11-tetraazacyclotetradecane-1,4,8,11-tetrayl)tetraacetic Acid]	≤5	76	155	85	173	96	196	61	149	66	161	70	171	0	0	0	20	0	I (Degree of irritation 0-0.1: Grade I (unstimulated))	0	Test result (number of subject) (++) (human skin; content 0.5 wt %): 0; Test result (number of subject) (±) (human skin; content 0.5 wt %): 0; Test result (number of subject) (−) (human skin; content 0.5 wt %): 20; Degree of irritation (human skin; content 0.5 wt %): 0; Grade for skin irritation (human skin; content 0.5 wt %): I (Degree of irritation 0-0.1: Grade I (unstimulated)); Test result (number of subject) (+) (human skin; content 1.0 wt %): 0; Test result (number of subject) (++) (human skin; content 1.0 wt %): 0; Test result (number of subject) (±) (human skin; content 1.0 wt %): 2; Test result (number of subject) (−) (human skin; content 1.0 wt %): 18; Degree of irritation (human skin; content 1.0 wt %): 0.10; Grade for skin irritation (human skin; content 1.0 wt %): I (Degree of irritation 0-0.1: Grade I (unstimulated)); Arsenic (As) Adsorption amount ([4]; content 0.5% aqueous solution): 42 ppm; Arsenic (As) Adsorption rate ([4]; content 0.5%): 168%; Arsenic (As) Adsorption amount ([4]; content 1.0% aqueous solution): 46 ppm; Arsenic (As) Adsorption rate ([4]; content 1.0%): 184%; Arsenic (As) Adsorption amount ([4]; content 2.0% aqueous solution): 48 ppm; Arsenic (As) Adsorption rate ([4]; content 2.0%): 192%; Formaldehyde GC Area, 30 min [5]: 0.182 mAU*min; Formaldehyde GC Area, 180 min [5]: 0 mAU*min; Formaldehyde GC Area, Initial [5]: 0.305 mAU*min
O=C(O)c1ccc(N(CCN(CCN(c2ccc(C(=O)O)o2)c2ccc(C(=O)O)o2)c2ccc(C(=O)O)o2)CCN(c2ccc(C(=O)O)o2)c2ccc(C(=O)O)o2)o1 [Embodiment 4, 5,5′,5″,5′″-(((ethane-1,2-diylbis((5-carboxyfuran-2-yl)azanediyl))bis(ethane-2,1-diyl))bis(azanetriyl))tetrakis(furan-2-carboxylic Acid)]	≤5	91	186	94	192	104	212	67	163	74	180	80	195	0	0	0	20	0	I (Degree of irritation 0-0.1: Grade I (unstimulated))	0	Test result (number of subject) (++) (human skin; content 0.5 wt %): 0; Test result (number of subject) (±) (human skin; content 0.5 wt %): 0; Test result (number of subject) (−) (human skin; content 0.5 wt %): 20; Degree of irritation (human skin; content 0.5 wt %): 0; Grade for skin irritation (human skin; content 0.5 wt %): I (Degree of irritation 0-0.1: Grade I (unstimulated)); Test result (number of subject) (+) (human skin; content 1.0 wt %): 0; Test result (number of subject) (++) (human skin; content 1.0 wt %): 0; Test result (number of subject) (±) (human skin; content 1.0 wt %): 1; Test result (number of subject) (−) (human skin; content 1.0 wt %): 19; Degree of irritation (human skin; content 1.0 wt %): 0.05; Grade for skin irritation (human skin; content 1.0 wt %): I (Degree of irritation 0-0.1: Grade I (unstimulated)); Arsenic (As) Adsorption amount ([4]; content 0.5% aqueous solution): 53 ppm; Arsenic (As) Adsorption rate ([4]; content 0.5%): 212%; Arsenic (As) Adsorption amount ([4]; content 1.0% aqueous solution): 56 ppm; Arsenic (As) Adsorption rate ([4]; content 1.0%): 224%; Arsenic (As) Adsorption amount ([4]; content 2.0% aqueous solution): 56 ppm; Arsenic (As) Adsorption rate ([4]; content 2.0%): 224%; Formaldehyde GC Area, 30 min [5]: 0.173 mAU*min; Formaldehyde GC Area, 180 min [5]: 0 mAU*min; Formaldehyde GC Area, Initial [5]: 0.305 mAU*min
C1CNCCNCCNCCN1 [Cyclen, 1,4,7,10-tetraazacyclododecane]	≤5	91	186	93	190	98	200	69	168	74	180	81	198	0	0	0	20	0	I (Degree of irritation 0-0.1: Grade I (unstimulated))	0	Test result (number of subject) (++) (human skin; content 0.5 wt %): 0; Test result (number of subject) (±) (human skin; content 0.5 wt %): 0; Test result (number of subject) (−) (human skin; content 0.5 wt %): 20; Degree of irritation (human skin; content 0.5 wt %): 0; Grade for skin irritation (human skin; content 0.5 wt %): I (Degree of irritation 0-0.1: Grade I (unstimulated)); Test result (number of subject) (+) (human skin; content 1.0 wt %): 1; Test result (number of subject) (++) (human skin; content 1.0 wt %): 0; Test result (number of subject) (±) (human skin; content 1.0 wt %): 1; Test result (number of subject) (−) (human skin; content 1.0 wt %): 18; Degree of irritation (human skin; content 1.0 wt %): 0.15; Grade for skin irritation (human skin; content 1.0 wt %): II (Degree of irritation 0.11-0.3: Grade II (weakly stimulated)); Arsenic (As) Adsorption amount ([4]; content 0.5% aqueous solution): 42 ppm; Arsenic (As) Adsorption rate ([4]; content 0.5%): 168%; Arsenic (As) Adsorption amount ([4]; content 1.0% aqueous solution): 49 ppm; Arsenic (As) Adsorption rate ([4]; content 1.0%): 196%; Arsenic (As) Adsorption amount ([4]; content 2.0% aqueous solution): 51 ppm; Arsenic (As) Adsorption rate ([4]; content 2.0%): 204%; Formaldehyde GC Area, 30 min [5]: 0.181 mAU*min; Formaldehyde GC Area, 180 min [5]: 0 mAU*min; Formaldehyde GC Area, Initial [5]: 0.305 mAU*min
